The target of one assay is T1, human ACC2 (Homo sapiens, UniProt O00763).
T1 construct: made in house; host or cells: insect cells (baculoviral expression system)
T1 sequence (O00763 129-2458 limits assumed): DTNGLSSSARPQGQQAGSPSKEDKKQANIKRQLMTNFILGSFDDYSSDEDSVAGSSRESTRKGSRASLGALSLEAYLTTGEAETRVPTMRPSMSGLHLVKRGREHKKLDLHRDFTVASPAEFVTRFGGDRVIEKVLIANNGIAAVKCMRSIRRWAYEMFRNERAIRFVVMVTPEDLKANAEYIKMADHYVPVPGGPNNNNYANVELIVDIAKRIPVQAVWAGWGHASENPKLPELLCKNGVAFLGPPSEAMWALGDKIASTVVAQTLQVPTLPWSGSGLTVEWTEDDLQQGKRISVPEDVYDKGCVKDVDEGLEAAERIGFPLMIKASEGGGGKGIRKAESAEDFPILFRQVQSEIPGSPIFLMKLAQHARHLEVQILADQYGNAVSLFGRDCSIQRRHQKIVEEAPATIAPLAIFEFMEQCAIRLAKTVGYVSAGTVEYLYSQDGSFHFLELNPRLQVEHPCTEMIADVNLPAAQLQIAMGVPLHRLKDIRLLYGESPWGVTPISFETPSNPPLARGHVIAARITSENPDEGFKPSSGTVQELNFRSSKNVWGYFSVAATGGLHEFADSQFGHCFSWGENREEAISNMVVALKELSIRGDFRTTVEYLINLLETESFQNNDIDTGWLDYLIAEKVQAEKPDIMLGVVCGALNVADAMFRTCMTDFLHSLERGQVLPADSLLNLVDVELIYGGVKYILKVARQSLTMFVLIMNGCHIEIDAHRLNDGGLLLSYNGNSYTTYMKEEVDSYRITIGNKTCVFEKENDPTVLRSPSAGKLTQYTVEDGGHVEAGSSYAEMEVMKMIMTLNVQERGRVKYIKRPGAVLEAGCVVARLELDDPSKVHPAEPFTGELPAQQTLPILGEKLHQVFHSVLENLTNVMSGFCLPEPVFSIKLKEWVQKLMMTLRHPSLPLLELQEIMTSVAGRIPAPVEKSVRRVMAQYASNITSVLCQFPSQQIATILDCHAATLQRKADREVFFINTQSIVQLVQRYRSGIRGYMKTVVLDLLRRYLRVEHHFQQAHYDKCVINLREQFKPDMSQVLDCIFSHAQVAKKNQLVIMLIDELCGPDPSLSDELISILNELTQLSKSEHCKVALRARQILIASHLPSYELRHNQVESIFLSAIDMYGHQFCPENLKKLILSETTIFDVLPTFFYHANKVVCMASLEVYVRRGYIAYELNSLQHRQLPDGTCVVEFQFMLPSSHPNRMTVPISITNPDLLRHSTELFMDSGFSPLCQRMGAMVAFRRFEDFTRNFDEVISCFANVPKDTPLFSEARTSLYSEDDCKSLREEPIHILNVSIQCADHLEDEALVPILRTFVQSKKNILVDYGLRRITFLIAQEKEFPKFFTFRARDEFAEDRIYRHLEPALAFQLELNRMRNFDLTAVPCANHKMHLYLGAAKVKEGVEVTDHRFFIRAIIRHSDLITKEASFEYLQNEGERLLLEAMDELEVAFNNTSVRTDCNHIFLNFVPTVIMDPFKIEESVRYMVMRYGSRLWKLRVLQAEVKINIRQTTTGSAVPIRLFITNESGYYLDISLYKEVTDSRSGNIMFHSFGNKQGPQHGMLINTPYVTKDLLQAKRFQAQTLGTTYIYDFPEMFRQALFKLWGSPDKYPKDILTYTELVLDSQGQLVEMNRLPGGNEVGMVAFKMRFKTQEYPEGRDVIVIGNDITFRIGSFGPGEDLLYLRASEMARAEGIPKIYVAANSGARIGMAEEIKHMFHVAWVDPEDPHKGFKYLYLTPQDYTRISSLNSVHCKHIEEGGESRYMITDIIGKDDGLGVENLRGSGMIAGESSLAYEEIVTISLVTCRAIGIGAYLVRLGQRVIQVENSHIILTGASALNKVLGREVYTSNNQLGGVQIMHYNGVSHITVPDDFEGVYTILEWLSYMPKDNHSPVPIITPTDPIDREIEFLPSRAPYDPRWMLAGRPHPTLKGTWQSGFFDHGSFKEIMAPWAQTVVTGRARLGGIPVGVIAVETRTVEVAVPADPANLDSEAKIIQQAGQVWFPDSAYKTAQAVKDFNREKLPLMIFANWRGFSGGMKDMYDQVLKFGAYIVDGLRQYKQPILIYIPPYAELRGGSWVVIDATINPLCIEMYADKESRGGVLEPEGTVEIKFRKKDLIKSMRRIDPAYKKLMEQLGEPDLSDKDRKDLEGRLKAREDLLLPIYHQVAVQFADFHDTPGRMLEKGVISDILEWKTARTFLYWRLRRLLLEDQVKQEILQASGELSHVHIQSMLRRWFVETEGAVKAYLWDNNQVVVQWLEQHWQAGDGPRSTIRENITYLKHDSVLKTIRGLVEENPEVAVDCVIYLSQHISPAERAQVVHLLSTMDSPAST
As to the kind of experiment: ACC2 assay, spectrophotometric 384 well assay (NADH-linked, coupled lactate dehydrogenase/pyruvate kinase). Conditions: ACC2 assay; human ACC2 construct lacking 128 N-terminal amino acids; 25° C., 340 nm, 15 minutes; read-out: IC50. The class given is biochemical. How it is done:
Spectrophotometric 384 Well Assay
Malonyl CoA formation by acetyl CoA carboxylases is stoichometrically linked to the consumption of ATP. ACC2 activity is measured in a NADH-linked kinetic method measuring ADP generated during the ACC reaction using a coupled lactate dehydrogenase/pyruvate kinase reaction.
For biological testing, a human ACC2 construct which lacks the 128 amino acids at the N-terminus for increased solubility (nt 385-6966 in Genbank entry AJ575592) is cloned. The protein is then expressed in insect cells using a baculoviral expression system. Protein purification is performed by anion exchange.
All compounds are dissolved in dimethyl sulfoxide (DMSO) to a concentration of 10 mM.
Assay reactions are then carried out in 384-well plates, with hACC2 in an appropriate dilution and at final assay concentrations (f.c.) of 100 mM Tris (pH 7.5), 10 mM trisodium citrate, 25 mM KHCO3, 10 mM MgCl2, 0.5 mg/ml BSA, 3.75 mM reduced L-glutathione, 15 U/ml lactate dehydrogenase, 0.5 mM phosphoenolpyruvate, 15 U/ml pyruvate kinase, compounds at different concentrations at final DMSO concentrations of 1%.
The enzymatic reaction is then started by addition of a mixture of NADH, acetyl Coenzyme A (both […].) and ATP (500 uM f.c.). The decrease of the optical density (slope S) is then determined at 25° C. at a wavelength of 340 nm over 15 minutes in a spectrophotometric reader.
Each assay microtiter plate contains wells with vehicle instead of compound as controls for the non-inhibited enzyme (100% CTL; ‘HIGH’) and wells without acetyl-CoA as controls for non-specific NADH degradation (0% CTL; ‘LOW’).
The slope S is used for calculation of % CTL=(S(compound)−S(‘LOW’))/(S(‘HIGH’)−S(‘LOW’))100. Compounds will give values between 100% CTL (no inhibition) and 0% CTL (complete inhibition).
For IC50 value determination, the sample slope in the presence of the test compound after subtraction of the low controls (S(compound)−S(‘LOW’)) are used.
An IC50 value is derived from the compound slopes at different dosages after subtraction of the low controls (S(compound)−S(‘LOW’)) by non-linear regression curve fitting (equation y=(A+((B−A)/(1+((C/x)^D))))).
With `CCOc1ccc(OC2CN(c3ccc([C@H](C)NC(=O)C4(C)CCC4)cc3)C2)cc1` [Example 1.1, (S)-1-Methyl-cyclobutanecarboxylic acid (1-{4-[3-(4-ethoxy-phenoxy)-azetidin-1-yl]-phenyl}-ethyl)-amide], the IC50 was 2.59 µM.

Regarding `CCOc1ccc(OC2CN(c3ccc([C@H](C)NC(=O)CC)cc3)C2)cc1` [Example 1.2], the IC50 turned out to be 0.15 µM.

Consider `CCOc1ccc(OC2CN(c3ccc([C@H](C)NC(=O)COC)cc3)C2)cc1` [Example 1.3], for which the IC50 was 1.04 µM.

Take `CCOc1ccc(OC2CN(c3ccc([C@H](C)NC(=O)C(C)C)cc3)C2)cc1` [Example 1.5]: the IC50 was 0.12 µM.

In the case of `CCCC(=O)N[C@@H](C)c1ccc(N2CC(Oc3ccc(OCC)cc3)C2)cc1` [Example 1.6], the IC50 was 0.28 µM.

For the compound `CCOc1ccc(OC2CN(c3ccc([C@H](C)NC(=O)C4CCC4)cc3)C2)cc1` [Example 1.7], the IC50 came to 0.17 µM.

For `CCOc1ccc(OC2CN(c3ccc([C@H](C)NC(=O)C4CCCC4)cc3)C2)cc1` [Example 1.8], the IC50 worked out at 0.55 µM.

For `CCOc1ccc(OC2CN(c3ccc([C@H](C)NC(=O)C4CC4C)cc3)C2)cc1` (stereo partly shown) [Example 1.9], the IC50 is 0.46 µM.

Regarding `CCOc1ccc(OC2CN(c3ccc([C@H](C)NC(=O)C4(O)CC4)cc3)C2)cc1` [Example 1.10], the IC50 was 3.19 µM.

For the compound `CCOc1ccc(OC2CN(c3ccc([C@H](C)NC(=O)c4cn[nH]c4)cc3)C2)cc1` [Example 1.11], the IC50 turned out to be 0.21 µM.

Consider `CCOc1ccc(OC2CN(c3ccc([C@H](C)NC(=O)C4(C)CC4)cc3)C2)cc1` [Example 1.12], for which the IC50 amounted to 0.23 µM.

`CCOc1ccc(OC2CN(c3ccc([C@H](C)NC(=O)Cn4ccnc4)cc3)C2)cc1` [Example 1.13]: the IC50 came out at 0.48 µM.

Take `CCOc1ccc(OC2CN(c3ccc([C@H](C)NC(=O)c4conc4C)cc3)C2)cc1` [Example 1.14]: the IC50 stood at 0.07 µM.

Regarding `CCOc1ccc(OC2CN(c3ccc([C@H](C)NC(=O)CC4CC4)cc3)C2)cc1` [Example 1.15], the IC50 was found to be 2.56 µM.

As for `CCOc1ccc(OC2CN(c3ccc([C@H](C)NC(=O)C(C)(C)F)cc3)C2)cc1` [Example 1.17], the IC50 is 0.28 µM.

As to `CCOc1ccc(OC2CN(c3ccc([C@H](C)NC(=O)C4(C#N)CC4)cc3)C2)cc1` [Example 1.18], the IC50 was found to be 0.34 µM.

In the case of `CCOc1ccc(OC2CN(c3ccc([C@H](C)NC(=O)C4CC(OC)C4)cc3)C2)cc1` (stereo partly shown) [Example 1.19], the IC50 is 0.59 µM.

Regarding `CCOc1ccc(OC2CN(c3ccc([C@H](C)NC(=O)c4cocn4)cc3)C2)cc1` [Example 1.20], the IC50 came out at 0.33 µM.

As to `CCOc1ccc(OC2CN(c3ccc([C@H](C)NC(=O)c4cnn(C)c4)cc3)C2)cc1` [Example 1.21], the IC50 was determined as 0.48 µM.

On to `CCOc1ccc(OC2CN(c3ccc([C@H](C)NC(=O)Cc4cncnc4)cc3)C2)cc1` [Example 1.22], for which the IC50 is 0.45 µM.

For the compound `CCOc1ccc(OC2CN(c3ccc([C@H](C)NC(=O)C4(C)COC4)cc3)C2)cc1` [Example 1.23], the half-maximal inhibitory concentration (IC50) came to 1.47 µM.

Consider `CCOc1ccc(OC2CN(c3ccc([C@H](C)NC(=O)C4CC(F)C4)cc3)C2)cc1` (stereo partly shown) [Example 1.24], for which the IC50 came out at 0.22 µM.

Turning to `CCOc1ccc(OC2CN(c3ccc([C@H](C)NC(=O)c4ccncc4)cc3)C2)cc1` [Example 1.26], the IC50 amounted to 1.23 µM.

With `CCOc1ccc(OC2CN(c3ccc([C@H](C)NC(=O)c4cccnc4)cc3)C2)cc1` [Example 1.27], the IC50 came to 1.95 µM.

For the compound `CCOc1ccc(OC2CN(c3ccc([C@H](C)NC(=O)CO)cc3)C2)cc1` [Example 1.28], the IC50 was determined as 1.01 µM.

Take `CCOc1ccc(OC2CN(c3ccc([C@H](C)NC(=O)c4c[nH]cn4)cc3)C2)cc1` [Example 1.29]: the IC50 is 1.16 µM.

For the compound `CCOc1ccc(OC2CN(c3ccc([C@H](C)NC(=O)c4c(C)noc4N)cc3)C2)cc1` [Example 1.30], the IC50 came out at 0.74 µM.

Regarding `CCOc1ccc(OC2CN(c3ccc([C@H](C)NC(=O)c4cc(C)nn4C)cc3)C2)cc1` [Example 1.31], the IC50 turned out to be 1.75 µM.

Turning to `CCOc1ccc(OC2CN(c3ccc([C@H](C)NC(=O)c4sc(NC(C)=O)nc4C)cc3)C2)cc1` [Example 1.32], the IC50 was determined as 0.05 µM.

For the compound `CCOc1ccc(OC2CN(c3ccc([C@H](C)NC(=O)c4cn(C)cn4)cc3)C2)cc1` [Example 1.33], the IC50 amounted to 2.52 µM.

Regarding `CCOc1ccc(OC2CN(c3ccc([C@H](C)NC(=O)c4cncn4C)cc3)C2)cc1` [Example 1.34], the IC50 turned out to be 2.06 µM.

On to `CCOc1ccc(OC2CN(c3ccc([C@H](C)NC(=O)c4ocnc4C)cc3)C2)cc1` [Example 1.35], for which the IC50 turned out to be 0.4 µM.

Regarding `CCOc1ccc(OC2CN(c3ccc([C@H](C)NC(=O)c4ccon4)cc3)C2)cc1` [Example 1.36], the IC50 was determined as 1.61 µM.

Turning to `CCOc1ccc(OC2CN(c3ccc([C@H](C)NC(=O)c4cnco4)cc3)C2)cc1` [Example 1.37], the IC50 was 0.17 µM.

Consider `CCOc1ccc(OC2CN(c3ccc([C@H](C)NC(=O)c4scnc4C)cc3)C2)cc1` [Example 1.38], for which the IC50 is 0.78 µM.

As for `CCOc1ccc(OC2CN(c3ccc([C@H](C)NC(=O)c4oc(C)nc4C)cc3)C2)cc1` [Example 1.39], the IC50 was 2.25 µM.

In the case of `CCOc1ccc(OC2CN(c3ccc([C@H](C)NC(=O)C(C)(C)OC)cc3)C2)cc1` [Example 1.40], the IC50 came to 6.43 µM.

With `CCOc1ccc(OC2CN(c3ccc([C@H](C)NC(=O)c4cnc(C)s4)cc3)C2)cc1` [Example 1.41], the IC50 was determined as 1.07 µM.

In the case of `CCOc1ccc(OC2CN(c3ccc([C@H](C)NC(=O)c4occc4C)cc3)C2)cc1` [Example 1.42], the IC50 stood at 1.7 µM.

Consider `CCOc1ccc(OC2CN(c3ccc([C@H](C)NC(=O)C(C)F)cc3)C2)cc1` (stereo partly shown) [Example 1.43], for which the IC50 is 0.32 µM.

`CCOc1ccc(OC2CN(c3ccc([C@H](C)NC(=O)c4csc(NC(C)=O)n4)cc3)C2)cc1` [Example 1.44]: the IC50 worked out at 0.61 µM.

On to `CCOc1ccc(OC2CN(c3ccc([C@H](C)NC(=O)c4cc(=O)[nH]cn4)cc3)C2)cc1` [Example 1.45], for which the IC50 came to 2.01 µM.

Take `CCOc1ccc(OC2CN(c3ccc([C@H](C)NC(=O)C4CC(=O)N(C)C4)cc3)C2)cc1` (stereo partly shown) [Example 1.46]: the IC50 is 1.73 µM.

Regarding `CCOc1ccc(OC2CN(c3ccc([C@H](C)NC(=O)Cc4c[nH]cn4)cc3)C2)cc1` [Example 1.47], the IC50 turned out to be 1.33 µM.

For the compound `CCOc1ccc(OC2CN(c3ccc([C@H](C)NC(=O)c4ccc5c(c4)nnn5C)cc3)C2)cc1` [Example 1.48], the IC50 came to 3.35 µM.

As for `CCOc1ccc(OC2CN(c3ccc([C@H](C)NC(=O)Cc4cc[nH]c4)cc3)C2)cc1` [Example 1.49], the IC50 was found to be 1.47 µM.

For `CCOc1ccc(OC2CN(c3ccc([C@H](C)NC(=O)c4nc(C)sc4C)cc3)C2)cc1` [Example 1.50], the IC50 came out at 1.06 µM.

Turning to `CCOc1ccc(OC2CN(c3ccc([C@H](C)NC(=O)C4CC=CC4)cc3)C2)cc1` [Example 1.51], the IC50 was 0.07 µM.

For the compound `CCOc1ccc(OC2CN(c3ccc([C@H](C)NC(=O)Cc4cccnc4)cc3)C2)cc1` [Example 1.52], the IC50 worked out at 0.97 µM.

Turning to `CCOc1ccc(OC2CN(c3ccc([C@H](C)NC(=O)C(C)(F)F)cc3)C2)cc1` [Example 1.53], the half-maximal inhibitory concentration (IC50) turned out to be 0.07 µM.

Regarding `CCOc1ccc(OC2CN(c3ccc([C@H](C)NC(=O)Cc4cc(C)no4)cc3)C2)cc1` [Example 1.54], the IC50 is 0.54 µM.

Regarding `CCOc1ccc(OC2CN(c3ccc([C@H](C)NC(=O)CCCNC(C)=O)cc3)C2)cc1` [Example 1.55], the IC50 came out at 0.44 µM.

In the case of `CCOc1ccc(OC2CN(c3ccc([C@H](C)NC(=O)C4CNC(=O)C4)cc3)C2)cc1` (stereo partly shown) [Example 1.57], the IC50 amounted to 1.3 µM.

`CCOc1ccc(OC2CN(c3ccc([C@H](C)NC(=O)c4cnc(NC)nc4)cc3)C2)cc1` [Example 1.58]: the IC50 came to 3.9 µM.

Consider `CCOc1ccc(OC2CN(c3ccc([C@H](C)NC(=O)C4CCC(=O)N4)cc3)C2)cc1` (stereo partly shown) [Example 1.59], for which the IC50 came out at 2.06 µM.

With `CCOc1ccc(OC2CN(c3ccc([C@H](C)NC(=O)c4cnc(NC(C)=O)s4)cc3)C2)cc1` [Example 1.60], the IC50 was found to be 0.32 µM.

Consider `CCOc1ccc(OC2CN(c3ccc([C@H](C)NC(=O)Cn4cncn4)cc3)C2)cc1` [Example 1.61], for which the 50% inhibitory concentration (IC50) stood at 1.44 µM.

The same assay, now with this note: IC50, ACC2 assay; human ACC2 construct lacking 128 N-terminal amino acids; 25° C., 340 nm, 15 minutes.
`CCOc1ccc(OC2CN(c3ccc([C@H](C)NC(=O)CF)cc3)C2)cc1` [Example 1.16] came in with an IC50 of 0.11 µM.

By IC50 is commonly meant the concentration that gives 50% inhibition.

For the origin of these results see patent publication US8530461B2 (Boehringer Ingelheim International GmbH, priority 2011, dated 2013).
